Measured values taken from publication PMC6679423 (International Journal of Molecular Sciences, 2019).
Marks after values point to notes of the source that are not given here.

How the values were obtained:
Assay type in all cases: in vitro ADME
human liver microsomes [1] = assay: Vandetanib metabolite formation by hepatic microsomes of 12 human donors
Method: (§1) Vandetanib was from LC Laboratories (Woburn, MA, USA). Ketoconazole, NADPH, methimazol and other chemicals were all purchased from Sigma-Aldrich (St. Louis, MO, USA). The purity of all chemicals met the standards of American Chemical Society, unless noted otherwise. All animal experiments were conducted in accordance with the Regulations for the Care and Use of Laboratory Animals (311/1997, Ministry of Agriculture, Czech Republic), which follows the Declaration of Helsinki. Male Wistar rats (~125–150 g; AnLab, Czech Republic), male C57BL/6 mice ([…]; CXR Bioscience Ltd., Dundee, UK), and male New Zealand rabbits (2.5–3 kg; AnLab, Czech Republic) were employed as animal models. Animals were placed in cages in temperature- and humidity-controlled rooms, acclimatized for five days and maintained at 22 °C with a 12 h light/dark period. Standardized diet and water were provided ad libitum. Rats, mice and rabbits used to prepare microsomal fraction from untreated animals were sacrificed by cervical dislocation, livers snap-frozen in liquid nitrogen and stored at −80 °C until further processing (see below). For controls, livers of the animals were removed immediately after sacrifice, divided into small pieces (~1 g), snap-frozen in liquid nitrogen, and stored at −80 °C until isolation of microsomal fractions. Pooled microsomes were used for all in vitro experiments in the present study and prepared from 10 livers/group for all animal species following established protocols. Microsomal fractions were stored at −80 °C until analysis. Protein concentrations in the microsomal fractions were assessed using the bicinchoninic acid protein assay with bovine serum albumin as a standard. Male human hepatic microsomes (pooled sample) (sample LOT: 3043885) were from Gentest Corp. (Woburn, MA, USA). Microsomes from livers of twelve human donors were obtained from Gentest Corp. (Woburn, MA, USA) (cat. no. HG43–1, HG103, HG74, HG93, HG24, HG27, HG23, HG32, HK31, HK34, HG03, and HG42). Each human microsomal sample has been characterized for CYP, FMO and protein contents and specific CYP activities by Gentest Corp. We reanalyzed each microsomal preparation for specific CYP, NADPH:CYP reductase (POR) and FMO activities by assays described in the protocols of Gentest Corp. Our data were similar to those reported by Gentest Corp. in their specification sheets. The content of CYP, specific CYP and FMO activities in each human hepatic microsomes [phenacetin-O-deethylation (CYP1A2), coumarin-7-hydroxylation (CYP2A6), (S)-mephenytoin-N-demethylase (CYP2B6), paclitaxel-6α-hydroxylation (CYP2C8), diclofenac-4’-hydroxylation (CYP2C9), (S)-mephenytoin-4′-hydroxylation (CYP2C19), bufuralol-1’-hydroxylation (CYP2D6), chlorzoxazone-6-hydroxylation (CYP2E1), testosterone-6β-hydroxylation (CYP3A4), lauric acid-12-hydroxylation (CYP4A), methyl-p-tolyl sulfide oxidase (FMO)] are shown in Table 2. Human recombinant enzymes were used in the forms of Supersomes™ and obtained from Gentest Corp. In Supersomes™ microsomal fractions were isolated from insect cells that are transfected with baculovirus constructs containing cDNA of human CYP enzymes (CYP1A1/2, 1B1, 2A6, 2B6, 2C8/9/18/19/, 2D6, 2E1, 3A4). These Supersomes™ also express NADPH:CYP oxidoreductase (POR). However, because they are microsomes (particles of broken endoplasmic reticulum), other enzymes (proteins) of the endoplasmic reticulum membrane (like NADH:cytochrome b5 reductase and cytochrome b5) are also expressed at basal levels in these Supersomes™. We also utilized Supersomes™ which over-expressed cytochrome b5, in a molar ratio of CYP to cytochrome b5 of 1 to 5. In Supersomes™ where cytochrome b5 was not over-expressed (see above) pure cytochrome b5 was added to reach a molar ratio of CYP to cytochrome b5 of 1 to 5. Reconstitution of Supersomes™ with purified cytochrome b5 was performed as described previously. […]

human hepatic microsomes = assay: Correlation of CYP- and FMO-linked activities with vandetanib metabolite formation in human hepatic microsomes; conditions: 12 human liver microsomal samples; for Correlation coefficient (r) of metabolite amount with CYP2B6 activity: (S)-mephenytoin-N-demethylase; for Correlation coefficient (r) of metabolite amount with CYP2A6 activity: coumarine-7-hydroxylase; for Correlation coefficient (r) of metabolite amount with CYP2C8 activity: paclitaxel-6α-hydroxylase; for Correlation coefficient (r) of metabolite amount with CYP3A4 activity: testosterone-6β-hydroxylase
Method: as §1

human recombinant CYP2C8 = assay: Vandetanib oxidation by human recombinant CYP2C8 (Supersomes)
Method: (§2) Vandetanib was from LC Laboratories (Woburn, MA, USA). Ketoconazole, NADPH, methimazol and other chemicals were all purchased from Sigma-Aldrich (St. Louis, MO, USA). The purity of all chemicals met the standards of American Chemical Society, unless noted otherwise. All animal experiments were conducted in accordance with the Regulations for the Care and Use of Laboratory Animals (311/1997, Ministry of Agriculture, Czech Republic), which follows the Declaration of Helsinki. Male Wistar rats (~125–150 g; AnLab, Czech Republic), male C57BL/6 mice ([…]; CXR Bioscience Ltd., Dundee, UK), and male New Zealand rabbits (2.5–3 kg; AnLab, Czech Republic) were employed as animal models. Animals were placed in cages in temperature- and humidity-controlled rooms, acclimatized for five days and maintained at 22 °C with a 12 h light/dark period. Standardized diet and water were provided ad libitum. Rats, mice and rabbits used to prepare microsomal fraction from untreated animals were sacrificed by cervical dislocation, livers snap-frozen in liquid nitrogen and stored at −80 °C until further processing (see below). […] Protein concentrations in the microsomal fractions were assessed using the bicinchoninic acid protein assay with bovine serum albumin as a standard. […]

human recombinant CYP3A5 = assay: Vandetanib oxidation by human recombinant CYP3A5 (Supersomes)
Method: as §2

CYP2D6, 3A5, 1A1 and 2C8 = assay: Contributions of other CYPs to N-desmethylvandetanib formation in human livers; conditions: with cytochrome b5
Method: The contributions of these enzymes were calculated by relative activity factor because the activities of CYPs in Supersomes™ also need to be considered in addition to the relative contents of CYPs in the livers. […] Of CYPs in human liver, CYP3A4 is the major enzyme present in this human organ (~30% of the CYP hepatic complement), followed by CYP2C9 and 1A2 (~15% and ~13%, respectively), while CYP2C19, 2E1 2A6, 2D6, 2C8 and 3A5 are present in human liver at levels that range from ~2.5% to ~8.5% (see Reference for an overview).

human liver microsomes [2] = assay: Vandetanib metabolite formation by hepatic microsomes of 12 human donors; remark: listed apart in the source
[3] = without consideration of cytochrome b5

N-desmethylvandetanib (M1) formed (human liver microsomes [1]; human hepatic microsomal sample HG03): 3.639 peak area/(mg protein × min)
N-desmethylvandetanib (M1) formed (human liver microsomes [1]; human hepatic microsomal sample HG24): 1.698 peak area/(mg protein × min)
N-desmethylvandetanib (M1) formed (human liver microsomes [1]; human hepatic microsomal sample HG32): 0.870 peak area/(mg protein × min)
N-desmethylvandetanib (M1) formed (human liver microsomes [1]; human hepatic microsomal sample HG42): 8.887 peak area/(mg protein × min)
N-desmethylvandetanib (M1) formed (human liver microsomes [1]; human hepatic microsomal sample HG43): 1.830 peak area/(mg protein × min)
N-desmethylvandetanib (M1) formed (human liver microsomes [1]; human hepatic microsomal sample HG74): 0.714 peak area/(mg protein × min)
N-desmethylvandetanib (M1) formed (human liver microsomes [1]; human hepatic microsomal sample HG93): 0.966 peak area/(mg protein × min)
N-desmethylvandetanib (M1) formed (human liver microsomes [1]; human hepatic microsomal sample HG103): 1.021 peak area/(mg protein × min)
N-desmethylvandetanib (M1) formed (human liver microsomes [1]; human hepatic microsomal sample HK31): 4.124 peak area/(mg protein × min)
N-desmethylvandetanib (M1) formed (human liver microsomes [1]; human hepatic microsomal sample HK34): 3.193 peak area/(mg protein × min)
Correlation coefficient (r) of metabolite amount with Cyt b5 (human hepatic microsomes): −0.114
Correlation coefficient (r) of metabolite amount with POR (human hepatic microsomes): 0.700
Correlation coefficient (r) of metabolite amount with Total CYPs (human hepatic microsomes): 0.786 **
Correlation coefficient (r) of metabolite amount with CYP2C19 activity (human hepatic microsomes; (S)-mephenytoin-4′-hydroxylase): −0.168
Correlation coefficient (r) of metabolite amount with CYP2B6 activity (human hepatic microsomes): 0.826
Correlation coefficient (r) of metabolite amount with CYP2B6 activity (human hepatic microsomes; listed as M1): 0.826 ***
Correlation coefficient (r) of metabolite amount with CYP2D6 activity (human hepatic microsomes; bufuralol-1′-hydroxylase): 0.165
Correlation coefficient (r) of metabolite amount with CYP2E1 activity (human hepatic microsomes; chlorzoxazone-6-hydroxylase): 0.043
Correlation coefficient (r) of metabolite amount with CYP2A6 activity (human hepatic microsomes): 0.778
Correlation coefficient (r) of metabolite amount with CYP2A6 activity (human hepatic microsomes; listed as M1): 0.778 **
Correlation coefficient (r) of metabolite amount with CYP2C9 activity (human hepatic microsomes; diclofenac-4′-hydroxylase): −0.034
Correlation coefficient (r) of metabolite amount with FMO activity (human hepatic microsomes; methyl-p-tolyl sulfide oxidase): 0.270
Correlation coefficient (r) of metabolite amount with CYP2C8 activity (human hepatic microsomes): 0.747
Correlation coefficient (r) of metabolite amount with CYP2C8 activity (human hepatic microsomes; listed as M1): 0.747 **
Correlation coefficient (r) of metabolite amount with CYP1A2 activity (human hepatic microsomes; phenacetin-O-deethylase): 0.018
Correlation coefficient (r) of metabolite amount with CYP3A4 activity (human hepatic microsomes): 0.984
Correlation coefficient (r) of metabolite amount with CYP3A4 activity (human hepatic microsomes; listed as M1): 0.984 ***
fold increase of N-desmethylvandetanib formation by cytochrome b5 (human recombinant CYP2C8; CYP2C8 with vs without cytochrome b5): 1.6 fold
contribution of CYP2C8 to N-desmethylvandetanib formation in human liver (human recombinant CYP2C8; [3]): < 0.3%
fold increase of N-desmethylvandetanib formation by cytochrome b5 (human recombinant CYP3A5; CYP3A5 with vs without cytochrome b5): 7 fold
contribution of CYP3A5 to N-desmethylvandetanib formation in human liver (human recombinant CYP3A5; [3]): < 0.3%
contribution in total of other human CYPs (CYP2D6, 3A5, 1A1 and 2C8) to N-desmethylvandetanib formation (CYP2D6, 3A5, 1A1 and 2C8): ~ 0.4%
N-desmethylvandetanib (M1) formed (human liver microsomes [2]; human hepatic microsomal sample HK23): 4.137 peak area/(mg protein × min)
N-desmethylvandetanib (M1) formed (human liver microsomes [2]; human hepatic microsomal sample HK27): 1.762 peak area/(mg protein × min)
SMILES: COc1cc2c(Nc3ccc(Br)cc3F)ncnc2cc1OCC1CCNCC1 [N-desmethylvandetanib]
